Reference: patent US11053241B2, “TYK2 inhibitors and uses thereof” (Nimbus Lakshmi, Inc., priority 2018, dated 2021)

biological target: human TYK2 (JH2domain-pseudokinase) (Homo sapiens (Human), UniProt P29597); experiment: TYK2 JH2 Domain Binding Assay (KINOMEscan); details: 11-point 3-fold dilution, top concentration 30,000 nM, duplicate
Experimental: Binding constants for compounds of the present invention against the JH2 domain were determined by the following protocol for a KINOMEscan® assay (DiscoveRx). A fusion protein of a partial length construct of human TYK2 (JH2domain-pseudokinase) (amino acids G556 to D888 based on reference sequence NP_003322.3) and the DNA binding domain of NFkB was expressed in transiently transfected HEK293 cells. From these HEK 293 cells, extracts were prepared in M-PER extraction buffer (Pierce) in the presence of Protease Inhibitor Cocktail Complete (Roche) and Phosphatase Inhibitor Cocktail Set II (Merck) per manufacturers' instructions. The TYK2(JH2domain-pseudokinase) fusion protein was labeled with a chimeric double-stranded DNA tag containing the NFkB binding site (5′-GGGAATTCCC-3′) fused to an amplicon for qPCR readout, which was added directly to the expression extract (the final concentration of DNA-tag in the binding reaction is 0.1 nM).
Streptavidin-coated magnetic beads (Dynal M280) were treated with a biotinylated small molecule ligand for 30 minutes at room temperature to generate affinity resins for the binding assays. The liganded beads were blocked with excess biotin and washed with blocking buffer (SeaBlock (Pierce), 1% BSA, 0.05% Tween 20, 1 mM DTT) to remove unbound ligand and to reduce nonspecific binding.
The binding reaction was assembled by combining 16 μl of DNA-tagged kinase extract, 3.8 μl liganded affinity beads, and 0.18 μl test compound (PBS/0.05% Tween 20/10 mM DTT/0.1% BSA/2 μg/ml sonicated salmon sperm DNA). Extracts were used directly in binding assays without any enzyme purification steps at a ≥10,000-fold overall stock dilution (final DNA-tagged enzyme concentration <0.1 nM). Extracts were loaded with DNA-tag and diluted into the binding reaction in a two step process. First extracts were diluted 1:100 in 1× binding buffer (PBS/0.05% Tween 20/10 mM DTT/0.1% BSA/2 μg/ml sonicated salmon sperm DNA) containing 10 nM DNA-tag. This dilution was allowed to equilibrate at room temperature for 15 minutes and then subsequently diluted 1:100 in 1× binding buffer. All reactions were performed in polypropylene 384-well plates. Each was a final volume of 0.02 mL. Assays were incubated with shaking for 1 hour at room temperature. Then the beads were pelleted and washed with wash buffer (1×PBS, 0.05% Tween 20) to remove displaced kinase and test compound. The washed based were re-suspended in elution buffer (1×PBS, 0.05% Tween 20, 0.5 μM non-biotinylated affinity ligand) and incubated at room temperature with shaking for 30 minutes. The kinase concentration in the eluates was measured by qPCR. qPCR reactions were assembled by adding 2.5 μL of kinase eluate to 7.5 μL of qPCR master mix containing 0.15 μM amplicon primers and 0.15 μM amplicon probe. The qPCR protocol consisted of a 10 minute hot start at 95° C., followed by 35 cycles of 95° C. for 15 seconds, 60° C. for 1 minute.
Test compounds were prepared as 111× stocks in 100% DMSO. Kd values were determined using an 11-point 3-fold compound dilution series with three DMSO control points. All compounds for Kd measurements are distributed by acoustic transfer (non-contact dispensing) in 100% DMSO. The compounds were then diluted directly into the assays such that the final concentration of DMSO was 0.9%. The Kd values were determined using a compound top concentration of 30,000 nM. Kd measurements were performed in duplicate.
Binding constants (Kds) were calculated with a standard dose-response curve using the Hill equation: […]
The Hill Slope was set to −1. Curves were fitted using a non-linear least square fit with the Levenberg-Marquardt algorithm (Levenberg, K., A method for the solution of certain non-linear problems in least squares, Q. Appl. Math. 2, 164-168 (1944)).

Sequence of human TYK2 (JH2domain-pseudokinase) (P29597 556-888): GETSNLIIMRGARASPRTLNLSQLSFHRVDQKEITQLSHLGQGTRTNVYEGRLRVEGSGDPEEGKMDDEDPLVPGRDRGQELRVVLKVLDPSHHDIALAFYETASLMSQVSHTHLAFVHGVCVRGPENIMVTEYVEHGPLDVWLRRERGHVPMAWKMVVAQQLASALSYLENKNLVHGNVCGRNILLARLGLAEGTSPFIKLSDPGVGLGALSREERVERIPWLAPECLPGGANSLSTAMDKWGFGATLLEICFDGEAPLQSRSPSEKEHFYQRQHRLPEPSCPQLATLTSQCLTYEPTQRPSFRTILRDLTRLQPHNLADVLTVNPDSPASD

Structure (SMILES)	Kd [nM]
CNC(=O)c1cnc(NC(=O)C2CC2)c2[nH]c(-c3cccn(C4CCCOC4)c3=O)cc12 (stereo in doubt) [Compound I-55, (S)-7-(cyclopropanecarboxamido)-N-methyl-2-(2-oxo-1-(tetrahydro-2H-pyran-3-yl)-1,2-dihydropyridin-3-yl)-1H-pyrrolo[2,3-c]pyridine-4-carboxamide]	0.2 to 1
CNC(=O)c1cnc(NC(=O)C2CC2)c2[nH]c(-c3cccn(C4CCCOC4)c3=O)cc12 (stereo in doubt) [Compound I-56, (R)-7-(cyclopropanecarboxamido)-N-methyl-2-(2-oxo-1-(tetrahydro-2H-pyran-3-yl)-1,2-dihydropyridin-3-yl)-1H-pyrrolo[2,3-c]pyridine-4-carboxamide]	0.2 to 1
CNC(=O)c1cnc(NC(=O)C2CC2)c2[nH]c(-c3cccc(N4CCC4)c3C#N)cc12 [Compound I-41, 2-(3-(azetidin-1-yl)-2-cyanophenyl)-7-(cyclopropanecarboxamido)-N-methyl-1H-pyrrolo[2,3-c]pyridine-4-carboxamide]	1 to 10
CNC(=O)c1cnc(NC(=O)C2CC2)c2[nH]c(-c3cccn(C4CCCOC4)c3=O)cc12 (stereo not drawn) [Compound I-43, 7-(cyclopropanecarboxamido)-N-methyl-2-(2-oxo-1-(tetrahydro-2H-pyran-3-yl)-1,2-dihydropyridin-3-yl)-1H-pyrrolo[2,3-c]pyridine-4-carboxamide]	0.2 to 1
CNC(=O)c1cnc(NC(=O)C2CC2)c2[nH]c(-c3cnccc3OC3CC3)cc12 [Compound I-44, 7-(cyclopropanecarboxamido)-2-(4-cyclopropoxypyridin-3-yl)-N-methyl-1H-pyrrolo[2,3-c]pyridine-4-carboxamide]	< 0.2
CNC(=O)c1cnc(NC(=O)C2CC2)c2[nH]c(-c3cccc(-c4cnn(C)c4)c3C#N)cc12 [Compound I-45, 2-(2-cyano-3-(1-methyl-1H-pyrazol-4-yl)phenyl)-7-(cyclopropane-carboxamido)-N-methyl-1H-pyrrolo[2,3-c]pyridine-4-carboxamide]	0.2 to 1
CNC(=O)c1cnc(NC(=O)C2CC2)c2[nH]c(-c3ccccc3N3CCC(O)CC3)cc12 [Compound I-46, 7-(cyclopropanecarboxamido)-2-(2-(4-hydroxypiperidin-1-yl)phenyl)-N-methyl-1H-pyrrolo[2,3-c]pyridine-4-carboxamide]	0.2 to 1
CNC(=O)c1cnc(NC(=O)C2CC2)c2[nH]c(-c3cccc(-n4cnc(C)n4)c3F)cc12 [Compound I-47, 7-(cyclopropanecarboxamido)-2-(2-fluoro-3-(3-methyl-1H-1,2,4-triazol-1-yl)phenyl)-N-methyl-1H-pyrrolo[2,3-c]pyridine-4-carboxamide]	< 0.2
CNC(=O)c1cnc(NC(=O)C2CC2)c2[nH]c(-c3cccc(-c4nc(C)cn4C)n3)cc12 [Compound I-49, 7-(cyclopropanecarboxamido)-2-(6-(1,4-dimethyl-1H-imidazol-2-yl)pyridin-2-yl)-N-methyl-1H-pyrrolo[2,3-c]pyridine-4-carboxamide]	< 0.2
CNC(=O)c1cnc(NC(=O)C2CC2)c2[nH]c(-c3cccc(-c4nnn(C)n4)c3)cc12 [Compound I-50, 7-(cyclopropanecarboxamido)-N-methyl-2-(3-(2-methyl-2H-tetrazol-5-yl)phenyl)-1H-pyrrolo[2,3-c]pyridine-4-carboxamide]	0.2 to 1
CNC(=O)c1cnc(NC(=O)C2CC2)c2[nH]c(-c3ncc(C(=O)N(C)C)cc3F)cc12 [Compound I-51, 7-(cyclopropanecarboxamido)-2-(5-(dimethylcarbamoyl)-3-fluoropyridin-2-yl)-N-methyl-1H-pyrrolo[2,3-c]pyridine-4-carboxamide]	0.2 to 1
CNC(=O)c1cnc(NC(=O)C2CC2)c2[nH]c(-c3ccc(C(=O)N4CC(F)(F)C4)cn3)cc12 [Compound I-53, 7-(cyclopropanecarboxamido)-2-(5-(3,3-difluoroazetidine-1-carbonyl)pyridin-2-yl)-N-methyl-1H-pyrrolo[2,3-c]pyridine-4-carboxamide]	0.2 to 1
CNC(=O)c1cnc(NC(=O)C2CC2)c2[nH]c(-c3ccc(-c4nccn4C)cc3OC3CC3)cc12 [Compound I-57, 7-(cyclopropanecarboxamido)-2-(2-cyclopropoxy-4-(1-methyl-1H-imidazol-2-yl)phenyl)-N-methyl-11H-pyrrolo[2,3-c]pyridine-4-carboxamide]	1 to 10
CNC(=O)c1cnc(NC(=O)C2CC2)c2[nH]c(-c3ccc(-c4nccn4C)cc3F)cc12 [Compound I-58, 7-(cyclopropanecarboxamido)-2-(2-fluoro-4-(1-methyl-1H-imidazol-2-yl)phenyl)-N-methyl-11H-pyrrolo[2,3-c]pyridine-4-carboxamide]	< 0.2
CNC(=O)c1cnc(NC(=O)C2CC2)c2[nH]c(-c3cccc(-c4nnn(C)n4)c3OC)cc12 [Compound I-59, 7-(cyclopropanecarboxamido)-2-(2-methoxy-3-(2-methyl-2H-tetrazol-5-yl)phenyl)-N-methyl-1H-pyrrolo[2,3-c]pyridine-4-carboxamide]	0.2 to 1
CNC(=O)c1cnc(NC(=O)C2CC2)c2[nH]c(-c3ccc(-c4nccs4)cc3OC)cc12 [Compound I-60, 7-(cyclopropanecarboxamido)-2-(2-methoxy-4-(thiazol-2-yl)phenyl)-N-methyl-1H-pyrrolo[2,3-c]pyridine-4-carboxamide]	< 0.2
CNC(=O)c1cnc(NC(=O)C2CC2)c2[nH]c(-c3ccc(C4COCCO4)cc3OC)cc12 (stereo not drawn) [Compound I-61, 2-(4-(1,4-dioxan-2-yl)-2-methoxyphenyl)-7-(cyclopropanecarboxamido)-N-methyl-1H-pyrrolo[2,3-c]pyridine-4-carboxamide]	> 10
CNC(=O)c1cnc(NC(=O)C2CC2)c2[nH]c(-c3ccc(-c4nncn4C)cc3F)cc12 [Compound I-62, 7-(cyclopropanecarboxamido)-2-(2-fluoro-4-(4-methyl-4H-1,2,4-triazol-3-yl)phenyl)-N-methyl-1H-pyrrolo[2,3-c]pyridine-4-carboxamide]	< 0.2
CNC(=O)c1cnc(NC(=O)C2CC2)c2[nH]c(-c3cccc(-n4nccn4)c3F)cc12 [Compound I-63, 7-(cyclopropanecarboxamido)-2-(2-fluoro-3-(2H-1,2,3-triazol-2-yl)phenyl)-N-methyl-1H-pyrrolo[2,3-c]pyridine-4-carboxamide]	0.2 to 1
CNC(=O)c1cnc(NC(=O)C2CC2)c2[nH]c(-c3ccc(-c4cn(C)nn4)cc3OC)cc12 [Compound I-64, 7-(cyclopropanecarboxamido)-2-(2-methoxy-4-(1-methyl-1H-1,2,3-triazol-4-yl)phenyl)-N-methyl-1H-pyrrolo[2,3-c]pyridine-4-carboxamide]	> 10
CNC(=O)c1cnc(NC(=O)C2CC2)c2[nH]c(-c3ccc(-n4ncnc4C)cc3F)cc12 [Compound I-65, 7-(cyclopropanecarboxamido)-2-(2-fluoro-4-(5-methyl-1H-1,2,4-triazol-1-yl)phenyl)-N-methyl-1H-pyrrolo[2,3-c]pyridine-4-carboxamide]	< 0.2
CNC(=O)c1cnc(NC(=O)C2CC2)c2[nH]c(-c3ccc(-c4cnccn4)cc3F)cc12 [Compound I-66, 7-(cyclopropanecarboxamido)-2-(2-fluoro-4-(pyrazin-2-yl)phenyl)-N-methyl-1H-pyrrolo[2,3-c]pyridine-4-carboxamide]	< 0.2
CNC(=O)c1cnc(NC(=O)C2CC2)c2[nH]c(-c3cccc(-c4cn(C)c(C)n4)c3F)cc12 [Compound I-67]	< 0.2
CNC(=O)c1cnc(NC(=O)C2CC2)c2[nH]c(-c3ccc(-c4ncc(C)n4C)cc3F)cc12 [Compound I-68, 7-(cyclopropanecarboxamido)-2-(4-(1,5-dimethyl-1H-imidazol-2-yl)-2-fluorophenyl)-N-methyl-1H-pyrrolo[2,3-c]pyridine-4-carboxamide]	< 0.2
